Measured values: article doi:10.1101/2023.11.24.568596v1 (biorxiv, 2023)

Columns and labels:
Settings in all cases: binder
DMPK1 = molecular target: T1, DMPK1 (Homo sapiens, UniProt Q09013)
T1 sequence (Q09013 1-629): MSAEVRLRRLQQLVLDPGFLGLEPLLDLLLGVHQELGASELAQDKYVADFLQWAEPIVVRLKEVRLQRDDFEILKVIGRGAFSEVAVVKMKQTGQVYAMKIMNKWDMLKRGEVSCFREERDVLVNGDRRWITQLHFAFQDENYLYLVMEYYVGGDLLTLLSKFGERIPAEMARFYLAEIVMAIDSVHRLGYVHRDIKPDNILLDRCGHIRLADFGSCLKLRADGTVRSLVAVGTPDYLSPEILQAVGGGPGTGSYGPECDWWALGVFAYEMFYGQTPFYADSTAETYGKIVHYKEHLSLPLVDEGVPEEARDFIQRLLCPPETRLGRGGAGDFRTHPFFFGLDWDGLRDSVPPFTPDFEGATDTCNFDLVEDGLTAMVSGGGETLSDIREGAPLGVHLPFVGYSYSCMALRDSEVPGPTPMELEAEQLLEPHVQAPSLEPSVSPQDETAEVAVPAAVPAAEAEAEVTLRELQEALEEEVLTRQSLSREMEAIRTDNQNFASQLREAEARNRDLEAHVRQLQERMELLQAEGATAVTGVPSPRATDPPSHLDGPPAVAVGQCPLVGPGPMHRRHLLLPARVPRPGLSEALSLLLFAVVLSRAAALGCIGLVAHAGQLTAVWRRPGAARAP

GSK3B = GSK3B (Homo sapiens, UniProt P49841)
BRAF = BRAF (Homo sapiens, UniProt P15056)
CHK2 = CHK2 (Homo sapiens, UniProt O96017)
GAK = molecular target: T2, GAK (Homo sapiens, UniProt O14976)
T2 sequence (O14976 1-1311): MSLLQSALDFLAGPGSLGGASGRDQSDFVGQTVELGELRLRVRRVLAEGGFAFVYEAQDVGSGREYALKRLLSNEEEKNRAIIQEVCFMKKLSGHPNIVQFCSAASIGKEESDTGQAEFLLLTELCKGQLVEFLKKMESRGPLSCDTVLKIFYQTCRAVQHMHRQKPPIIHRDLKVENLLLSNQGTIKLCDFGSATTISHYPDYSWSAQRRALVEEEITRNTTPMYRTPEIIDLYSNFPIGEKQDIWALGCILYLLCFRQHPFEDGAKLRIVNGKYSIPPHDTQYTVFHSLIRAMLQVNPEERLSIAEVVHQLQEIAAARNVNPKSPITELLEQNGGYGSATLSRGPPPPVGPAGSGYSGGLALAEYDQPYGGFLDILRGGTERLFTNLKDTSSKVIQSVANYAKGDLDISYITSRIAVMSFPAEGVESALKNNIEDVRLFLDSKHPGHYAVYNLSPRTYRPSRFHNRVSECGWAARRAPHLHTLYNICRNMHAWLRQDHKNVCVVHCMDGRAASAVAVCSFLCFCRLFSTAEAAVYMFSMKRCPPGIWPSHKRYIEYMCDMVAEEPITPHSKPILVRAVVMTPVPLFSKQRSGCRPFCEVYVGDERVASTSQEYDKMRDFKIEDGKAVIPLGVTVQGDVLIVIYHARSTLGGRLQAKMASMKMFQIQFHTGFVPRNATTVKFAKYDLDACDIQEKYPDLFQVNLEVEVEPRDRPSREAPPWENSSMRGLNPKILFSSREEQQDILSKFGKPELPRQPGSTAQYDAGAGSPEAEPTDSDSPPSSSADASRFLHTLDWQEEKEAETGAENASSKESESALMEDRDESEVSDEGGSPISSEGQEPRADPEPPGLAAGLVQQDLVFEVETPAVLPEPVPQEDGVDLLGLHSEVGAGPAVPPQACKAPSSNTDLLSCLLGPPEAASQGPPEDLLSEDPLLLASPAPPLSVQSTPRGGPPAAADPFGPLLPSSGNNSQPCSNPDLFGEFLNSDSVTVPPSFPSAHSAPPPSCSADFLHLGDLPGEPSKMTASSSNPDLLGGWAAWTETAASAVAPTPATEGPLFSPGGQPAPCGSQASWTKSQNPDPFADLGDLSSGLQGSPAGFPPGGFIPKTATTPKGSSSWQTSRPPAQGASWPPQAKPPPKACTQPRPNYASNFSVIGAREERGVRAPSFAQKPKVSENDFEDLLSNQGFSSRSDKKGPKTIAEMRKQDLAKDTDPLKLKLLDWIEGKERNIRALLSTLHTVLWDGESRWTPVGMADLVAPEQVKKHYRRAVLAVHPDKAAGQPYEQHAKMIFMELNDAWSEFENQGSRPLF

PCTAIRE1 = PCTAIRE1 (Homo sapiens, UniProt Q00536)
CLK3 = CLK3 (Homo sapiens, UniProt P49761)
MARK3 = MARK3 (Homo sapiens, UniProt P27448)
JNK3 = JNK3 (Homo sapiens, UniProt P53779)
Chain of JNK3 (P53779 whole entry): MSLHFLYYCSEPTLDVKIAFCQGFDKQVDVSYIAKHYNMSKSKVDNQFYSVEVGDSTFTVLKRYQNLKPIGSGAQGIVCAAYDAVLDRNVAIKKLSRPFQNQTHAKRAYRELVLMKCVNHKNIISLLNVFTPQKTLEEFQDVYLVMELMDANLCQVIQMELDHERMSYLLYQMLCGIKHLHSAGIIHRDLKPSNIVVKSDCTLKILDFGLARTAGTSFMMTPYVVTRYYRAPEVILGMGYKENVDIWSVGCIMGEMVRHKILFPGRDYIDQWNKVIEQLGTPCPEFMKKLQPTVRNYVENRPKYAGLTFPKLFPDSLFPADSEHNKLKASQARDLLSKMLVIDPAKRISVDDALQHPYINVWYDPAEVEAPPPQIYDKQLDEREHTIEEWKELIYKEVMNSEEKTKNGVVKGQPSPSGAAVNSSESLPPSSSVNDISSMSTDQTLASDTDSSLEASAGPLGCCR

Chain of BRAF (P15056 whole entry): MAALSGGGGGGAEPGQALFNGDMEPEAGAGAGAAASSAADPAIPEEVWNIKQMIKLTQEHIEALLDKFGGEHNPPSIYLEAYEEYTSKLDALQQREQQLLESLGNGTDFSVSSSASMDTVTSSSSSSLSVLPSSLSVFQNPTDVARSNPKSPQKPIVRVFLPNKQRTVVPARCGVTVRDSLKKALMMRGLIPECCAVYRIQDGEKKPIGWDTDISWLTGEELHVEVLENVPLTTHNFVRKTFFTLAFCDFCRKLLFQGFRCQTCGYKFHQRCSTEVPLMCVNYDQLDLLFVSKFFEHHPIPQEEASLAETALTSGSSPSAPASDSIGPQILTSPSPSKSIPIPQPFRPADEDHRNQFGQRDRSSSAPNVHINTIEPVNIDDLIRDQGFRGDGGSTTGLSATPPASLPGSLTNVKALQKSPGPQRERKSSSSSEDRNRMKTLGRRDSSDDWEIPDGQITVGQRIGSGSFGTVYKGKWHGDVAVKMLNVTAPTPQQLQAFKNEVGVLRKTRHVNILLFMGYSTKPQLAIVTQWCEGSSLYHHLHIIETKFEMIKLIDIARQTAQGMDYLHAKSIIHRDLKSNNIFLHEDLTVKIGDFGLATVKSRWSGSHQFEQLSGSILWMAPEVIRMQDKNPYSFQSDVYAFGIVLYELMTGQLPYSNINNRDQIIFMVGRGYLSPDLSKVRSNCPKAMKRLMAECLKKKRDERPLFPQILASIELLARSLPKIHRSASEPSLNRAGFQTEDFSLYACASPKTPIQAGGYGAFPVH
Chain of GSK3B (P49841 whole entry): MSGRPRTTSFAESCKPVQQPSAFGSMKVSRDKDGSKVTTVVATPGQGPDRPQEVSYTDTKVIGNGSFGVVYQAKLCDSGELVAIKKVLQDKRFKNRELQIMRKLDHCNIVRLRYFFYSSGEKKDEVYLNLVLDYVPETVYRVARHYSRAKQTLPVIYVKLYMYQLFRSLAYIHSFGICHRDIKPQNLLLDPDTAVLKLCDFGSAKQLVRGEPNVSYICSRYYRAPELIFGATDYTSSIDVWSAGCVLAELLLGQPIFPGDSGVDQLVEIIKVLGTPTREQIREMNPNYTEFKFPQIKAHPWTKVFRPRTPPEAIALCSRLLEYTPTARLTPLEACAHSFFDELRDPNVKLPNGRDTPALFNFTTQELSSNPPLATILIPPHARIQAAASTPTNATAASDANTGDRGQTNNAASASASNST
Chain of MARK3 (P27448 whole entry): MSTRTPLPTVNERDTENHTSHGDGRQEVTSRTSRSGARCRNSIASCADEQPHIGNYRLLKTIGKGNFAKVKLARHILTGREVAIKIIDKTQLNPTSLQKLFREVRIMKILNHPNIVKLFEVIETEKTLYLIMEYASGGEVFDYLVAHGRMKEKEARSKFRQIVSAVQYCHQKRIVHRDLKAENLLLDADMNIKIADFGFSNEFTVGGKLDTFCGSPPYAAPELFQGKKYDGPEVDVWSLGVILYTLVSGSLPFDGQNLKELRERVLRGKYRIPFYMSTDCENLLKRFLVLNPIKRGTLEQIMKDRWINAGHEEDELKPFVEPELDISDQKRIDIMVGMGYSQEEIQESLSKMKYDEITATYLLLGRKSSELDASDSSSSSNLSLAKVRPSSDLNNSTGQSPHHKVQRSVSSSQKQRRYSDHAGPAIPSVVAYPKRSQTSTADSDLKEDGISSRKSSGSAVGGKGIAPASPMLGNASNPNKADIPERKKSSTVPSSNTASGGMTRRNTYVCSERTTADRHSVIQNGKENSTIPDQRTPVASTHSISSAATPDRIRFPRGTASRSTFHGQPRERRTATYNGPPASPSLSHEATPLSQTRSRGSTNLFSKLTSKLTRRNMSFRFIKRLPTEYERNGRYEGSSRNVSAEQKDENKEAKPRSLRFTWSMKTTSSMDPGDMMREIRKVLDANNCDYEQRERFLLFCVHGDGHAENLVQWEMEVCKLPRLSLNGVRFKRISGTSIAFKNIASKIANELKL
Chain of CLK3 (P49761 whole entry): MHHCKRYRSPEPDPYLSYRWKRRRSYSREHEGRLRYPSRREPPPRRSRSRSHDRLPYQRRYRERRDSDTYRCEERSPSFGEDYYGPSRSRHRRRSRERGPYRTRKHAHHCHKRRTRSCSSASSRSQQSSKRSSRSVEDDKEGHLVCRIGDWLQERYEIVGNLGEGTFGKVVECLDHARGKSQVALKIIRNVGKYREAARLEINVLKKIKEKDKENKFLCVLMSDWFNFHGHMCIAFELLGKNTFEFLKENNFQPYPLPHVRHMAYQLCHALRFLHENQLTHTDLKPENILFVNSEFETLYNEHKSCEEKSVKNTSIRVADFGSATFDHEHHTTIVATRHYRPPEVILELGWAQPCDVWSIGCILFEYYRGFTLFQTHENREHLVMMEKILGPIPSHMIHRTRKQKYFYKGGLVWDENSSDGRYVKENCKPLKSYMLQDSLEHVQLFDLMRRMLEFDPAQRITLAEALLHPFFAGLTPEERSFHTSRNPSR
Chain of PCTAIRE1 (Q00536 whole entry): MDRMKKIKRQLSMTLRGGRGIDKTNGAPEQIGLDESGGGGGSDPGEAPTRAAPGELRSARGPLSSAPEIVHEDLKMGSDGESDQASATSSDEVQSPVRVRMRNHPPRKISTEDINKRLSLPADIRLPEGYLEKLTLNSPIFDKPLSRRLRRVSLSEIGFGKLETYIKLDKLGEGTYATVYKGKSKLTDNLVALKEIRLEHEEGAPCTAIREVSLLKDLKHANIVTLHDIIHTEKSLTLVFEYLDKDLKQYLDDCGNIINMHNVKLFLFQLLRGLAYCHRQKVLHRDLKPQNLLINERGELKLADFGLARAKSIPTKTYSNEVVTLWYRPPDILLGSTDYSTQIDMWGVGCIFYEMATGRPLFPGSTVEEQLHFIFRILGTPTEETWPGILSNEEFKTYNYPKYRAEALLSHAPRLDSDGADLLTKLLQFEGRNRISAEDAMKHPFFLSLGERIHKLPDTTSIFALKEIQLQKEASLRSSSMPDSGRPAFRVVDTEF
Chain of CHK2 (O96017 whole entry): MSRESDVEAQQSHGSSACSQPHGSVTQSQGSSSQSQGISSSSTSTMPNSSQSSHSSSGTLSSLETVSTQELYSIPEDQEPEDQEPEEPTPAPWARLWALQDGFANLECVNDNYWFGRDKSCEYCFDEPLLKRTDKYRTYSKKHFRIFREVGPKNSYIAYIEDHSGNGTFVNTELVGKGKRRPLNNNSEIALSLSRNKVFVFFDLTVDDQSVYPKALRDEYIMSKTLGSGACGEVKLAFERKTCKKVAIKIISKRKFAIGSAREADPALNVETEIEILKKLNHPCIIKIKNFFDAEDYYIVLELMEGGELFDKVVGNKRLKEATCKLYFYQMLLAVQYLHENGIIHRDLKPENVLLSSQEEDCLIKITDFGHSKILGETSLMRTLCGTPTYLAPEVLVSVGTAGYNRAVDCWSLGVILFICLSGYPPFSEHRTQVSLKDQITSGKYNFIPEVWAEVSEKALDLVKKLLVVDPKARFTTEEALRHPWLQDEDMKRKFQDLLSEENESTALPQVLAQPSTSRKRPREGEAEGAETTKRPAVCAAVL

SMILES: CNc1ncc2cc(-c3ccc(-c4cccc(C)n4)cc3Cl)c(=O)n(CCCCN)c2n1 [compound 20, MRLW5]
- ΔTm MRLW5 (20) (DMPK1): 0.8 °C
- ΔTm MRLW5 (20) (GSK3B): 1.8 °C
- ΔTm MRLW5 (20) (BRAF): 4.1 °C
- ΔTm MRLW5 (20) (CHK2): 2.8 °C
- ΔTm MRLW5 (20) (GAK): 7.7 °C
- ΔTm MRLW5 (20) (PCTAIRE1): 2.3 °C
- ΔTm MRLW5 (20) (CLK3): 0.2 °C
- ΔTm MRLW5 (20) (MARK3): 9.3 °C
- ΔTm MRLW5 (20) (JNK3): 1.3 °C

SMILES: CNc1ncc2cc(-c3ccc(-c4cccc(C)n4)cc3Cl)c(=O)n(CCC3CCNCC3)c2n1 [compound 22, 6-(2-Chloro-4-(6-methylpyridin-2-yl)phenyl)-2-(methylamino)-8-(2-(piperidin-4-yl)ethyl)pyrido[2,3-d]pyrimidin-7(8H)-one]
- ΔTm 22 (DMPK1): -1.7 °C
- ΔTm 22 (GSK3B): 1.3 °C
- ΔTm 22 (BRAF): 6.3 °C
- ΔTm 22 (CHK2): 3.0 °C
- ΔTm 22 (GAK): 9.7 °C
- ΔTm 22 (PCTAIRE1): 3.0 °C
- ΔTm 22 (CLK3): -0.4 °C
- ΔTm 22 (MARK3): 8.8 °C
- ΔTm 22 (JNK3): 3.3 °C

SMILES: CNc1ncc2cc(-c3ccc(-c4cccc(C)n4)cc3Cl)c(=O)n(C[C@H]3CC[C@H](N)CC3)c2n1 [compound 23, 23]
- ΔTm 23 (DMPK1): -2.8 °C
- ΔTm 23 (GSK3B): 1.7 °C
- ΔTm 23 (BRAF): 6.2 °C
- ΔTm 23 (CHK2): 4.6 °C
- ΔTm 23 (GAK): 9.3 °C
- ΔTm 23 (PCTAIRE1): 4.4 °C
- ΔTm 23 (CLK3): 1.0 °C
- ΔTm 23 (MARK3): 10.4 °C
- ΔTm 23 (JNK3): 1.3 °C

SMILES: Cc1cccc(-c2ccc(-c3cc4cnc(NC(CO)CO)nc4n(CCCCN)c3=O)c(Cl)c2)n1 [compound 24, 8-(4-Aminobutyl)-6-(2-chloro-4-(6-methylpyridin-2-yl)phenyl)-2-((1,3-dihydroxypropan-2-yl)amino)pyrido[2,3-d]pyrimidin-7(8H)-one]
- ΔTm MR24 (24) (DMPK1): -1.3 °C
- ΔTm MR24 (24) (GSK3B): 0.0 °C
- ΔTm MR24 (24) (BRAF): 1.2 °C
- ΔTm MR24 (24) (CHK2): 2.0 °C
- ΔTm MR24 (24) (GAK): 3.9 °C
- ΔTm MR24 (24) (PCTAIRE1): 1.7 °C
- ΔTm MR24 (24) (CLK3): -0.2 °C
- ΔTm MR24 (24) (MARK3): 5.8 °C
- ΔTm MR24 (24) (JNK3): 3.7 °C

SMILES: Cc1cccc(-c2ccc(-c3cc4cnc(NCCCc5ccc(N)cc5)nc4n(CCCCN)c3=O)c(Cl)c2)n1 [compound 25, 8-(4-Aminobutyl)-2-((3-(4-aminophenyl)propyl)amino)-6-(2-chloro-4-(6-methylpyridin-2-yl)phenyl)pyrido[2,3-d]pyrimidin-7(8H)-one]
- ΔTm 25 (DMPK1): -2.7 °C
- ΔTm 25 (GSK3B): 3.8 °C
- ΔTm 25 (BRAF): 5.2 °C
- ΔTm 25 (CHK2): 8.5 °C
- ΔTm 25 (GAK): 6.9 °C
- ΔTm 25 (PCTAIRE1): 4.5 °C
- ΔTm 25 (CLK3): -0.3 °C
- ΔTm 25 (MARK3): 8.6 °C
- ΔTm 25 (JNK3): 3.2 °C

SMILES: Cc1cccc(-c2ccc(-c3cc4cnc(NCCCN5CCOCC5)nc4n(CCCCN)c3=O)c(Cl)c2)n1 [compound 26, MR26]
- ΔTm MR26 (26) (DMPK1): -1.3 °C
- ΔTm MR26 (26) (GSK3B): 0.8 °C
- ΔTm MR26 (26) (BRAF): 1.7 °C
- ΔTm MR26 (26) (CHK2): 3.3 °C
- ΔTm MR26 (26) (GAK): 3.6 °C
- ΔTm MR26 (26) (PCTAIRE1): 1.8 °C
- ΔTm MR26 (26) (CLK3): -0.4 °C
- ΔTm MR26 (26) (MARK3): 5.4 °C
- ΔTm MR26 (26) (JNK3): 1.1 °C
